Measured values reported in the supplement of paper PMC11061612.

Experiments:
Assay in all cases: combination Emax (second highest fraction inhibited in the dose matrix, 72 h); higher = more inhibition; extreme values may be limits of the assay
[1] = test system: COR-L105 (Lung Adenocarcinoma)
Summary of the method: (§1)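 After 24 hours at 37°C and 5% CO2 in 1536-well plates, cells in DMEM/F12 or RPMI plus 10% FBS received two-drug dose matrices for 72 hours. Viability came from CellTiter-Glo 2.0 luminescence and was scaled as inhibition, anchored at 0 by vehicle wells and at 1 by blank wells. Combination Emax is taken as the second-highest inhibition in the matrix, and Bliss excess as the observed combination effect less EA + EB − EA·EB, with EA and EB the single-agent effects.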

[2] = test system: ATN-1 (T-Lymphoblastic Leukemia)
Summary of the method: as §1

[3] = test system: MRK-nu-1 (Breast Carcinoma)
Summary of the method: as §1

GCIY (Gastric Carcinoma) = test system: GCIY (Gastric Carcinoma)
Summary of the method: as §1

[4] = test system: NCI-H1944 (Lung Adenocarcinoma)
Summary of the method: as §1

[5] = test system: HT-3 (Cervical Carcinoma)
Summary of the method: as §1

[6] = test system: SUP-HD1 (Hodgkin's Lymphoma)
Summary of the method: as §1

[7] = test system: NTERA-2-cl-D1 (Other Solid Carcinomas)
Summary of the method: as §1

SK-MEL-24 (Melanoma) = test system: SK-MEL-24 (Melanoma)
Summary of the method: as §1

[8] = test system: NCI-H1648 (Lung Adenocarcinoma)
Summary of the method: as §1

[9] = test system: NCI-H1975 (Lung Adenocarcinoma)
Summary of the method: as §1

[10] = test system: SW1463 (Colorectal Carcinoma)
Summary of the method: as §1

[11] = test system: SBC-5 (Small Cell Lung Carcinoma)
Summary of the method: as §1

[12] = test system: GRANTA-519 (B-Cell Non-Hodgkin's Lymphoma)
Summary of the method: as §1

[13] = test system: OVKATE (Ovarian Carcinoma)
Summary of the method: as §1

[14] = test system: CAL-85-1 (Breast Carcinoma)
Summary of the method: as §1

[15] = test system: HT-1197 (Bladder Carcinoma)
Summary of the method: as §1

SK-N-DZ (Neuroblastoma) = test system: SK-N-DZ (Neuroblastoma)
Summary of the method: as §1

[16] = test system: Daudi (Burkitt's Lymphoma)
Summary of the method: as §1

[17] = test system: TOV-21G (Ovarian Carcinoma)
Summary of the method: as §1

CN(CCO)CC[C@H](CSc1ccccc1)Nc1ccc(S(=O)(=O)NC(=O)c2ccc(N3CCC([C@@H](O)c4ccccc4-c4ccc(Cl)cc4)CC3)cc2)cc1S(=O)(=O)C(F)(F)F [AZD4320] + Cc1cc2ncnn2cc1Nc1ncc2c(n1)n(C1CCOCC1)c(=O)n2C [AZD7648] (first compound max 1 µM, 7x7, partner max 10 µM)
combination Emax [1]: 0.253 | combination Emax [2]: 0.778 | combination Emax [3]: 0.697 | combination Emax (GCIY (Gastric Carcinoma)): 0.609 | combination Emax [4]: 0.464 | combination Emax [5]: 0.0567 | combination Emax [6]: 0.939 | combination Emax [7]: 0.682 | combination Emax (SK-MEL-24 (Melanoma)): 0.252 | combination Emax [8]: 0.694 | combination Emax [9]: 0.35 | combination Emax [10]: 0.185 | combination Emax [11]: 0.166 | combination Emax [12]: 0.829 | combination Emax [13]: 0.303 | combination Emax [14]: 0.337 | combination Emax [15]: 0.261 | combination Emax (SK-N-DZ (Neuroblastoma)): 0.651 | combination Emax [16]: 0.22 | combination Emax [17]: 0.209

CN(CCO)CC[C@H](CSc1ccccc1)Nc1ccc(S(=O)(=O)NC(=O)c2ccc(N3CCC([C@@H](O)c4ccccc4-c4ccc(Cl)cc4)CC3)cc2)cc1S(=O)(=O)C(F)(F)F [AZD4320] + Nc1ccn([C@@H]2O[C@H](CO)[C@@H](O)C2(F)F)c(=O)n1 [Gemcitabine] (first compound max 1 µM, 7x7, partner max 0.3 µM)
combination Emax [1]: 0.514 | combination Emax [3]: 0.892 | combination Emax (GCIY (Gastric Carcinoma)): 0.782 | combination Emax [7]: 0.663 | combination Emax (SK-MEL-24 (Melanoma)): 0.901 | combination Emax [8]: 0.49 | combination Emax [10]: 0.455 | combination Emax [13]: 0.246 | combination Emax [14]: 0.702

C[C@@H](c1ccc2nccn2c1)n1nnc2ncc(-c3cnn(C)c3)nc21 [Savolitinib] + CN(CC[C@H](CSC1=CC=CC=C1)NC2=C(C=C(C=C2)S(=O)(=O)NC(=O)C3=CC=C(C=C3)N4CCC(CC4)[C@H](C5=CC=CC=C5C6=CC=C(C=C6)Cl)O)S(=O)(=O)C(F)(F)F)CCO [AZD4320] (first compound max 1 µM, 7x7, partner max 1 µM)
combination Emax [2]: 0.679 | combination Emax [4]: 0.369 | combination Emax [5]: 0.15 | combination Emax [6]: 0.941 | combination Emax [9]: 0.178 | combination Emax [11]: 0.326 | combination Emax [12]: 0.898 | combination Emax [15]: 0.255 | combination Emax (SK-N-DZ (Neuroblastoma)): 0.784 | combination Emax [16]: 0.188 | combination Emax [17]: 0.227

N#Cc1cnc(Nc2cc(NC[C@H]3CNCCO3)c(C(F)(F)F)cn2)cn1 [SRA737] + Nc1ccn([C@@H]2O[C@H](CO)[C@@H](O)C2(F)F)c(=O)n1 [Gemcitabine] (first compound max 10 µM, 7x7, partner max 0.3 µM)
combination Emax [1]: 0.485 | combination Emax [3]: 0.748 | combination Emax (GCIY (Gastric Carcinoma)): 0.78 | combination Emax [7]: 0.54 | combination Emax (SK-MEL-24 (Melanoma)): 0.814 | combination Emax [8]: 0.666 | combination Emax [10]: 0.848 | combination Emax [13]: 0.27 | combination Emax [14]: 0.743

CN(CCO)CC[C@H](CSc1ccccc1)Nc1ccc(S(=O)(=O)NC(=O)c2ccc(N3CCC([C@@H](O)c4ccccc4-c4ccc(Cl)cc4)CC3)cc2)cc1S(=O)(=O)C(F)(F)F [AZD4320] + CC(=O)O[C@H]1C(=O)[C@@]2(C)[C@H]([C@H](OC(=O)c3ccccc3)[C@]3(O)C[C@H](OC(=O)[C@H](O)[C@@H](NC(=O)c4ccccc4)c4ccccc4)C(C)=C1C3(C)C)[C@]1(OC(C)=O)CO[C@@H]1C[C@@H]2O [Paclitaxel] (first compound max 1 µM, 7x7, partner max 3 µM)
combination Emax [1]: 0.695 | combination Emax [3]: 1 | combination Emax (GCIY (Gastric Carcinoma)): 0.952 | combination Emax [7]: 0.754 | combination Emax (SK-MEL-24 (Melanoma)): 0.888 | combination Emax [8]: 0.936 | combination Emax [10]: 0.767 | combination Emax [13]: 0.629 | combination Emax [14]: 0.884

N#Cc1cnc(Nc2cc(NC[C@H]3CNCCO3)c(C(F)(F)F)cn2)cn1 [SRA737] + O=c1[nH]cc(F)c(=O)[nH]1 [5-Fluorouracil] (first compound max 10 µM, 7x7, partner max 20 µM)
combination Emax [1]: 0.234 | combination Emax [3]: 0.443 | combination Emax (GCIY (Gastric Carcinoma)): 0.505 | combination Emax [7]: 0.464 | combination Emax (SK-MEL-24 (Melanoma)): 0.314 | combination Emax [8]: 0.208 | combination Emax [10]: 0.402 | combination Emax [13]: 0.147 | combination Emax [14]: 0.555

C=CCn1c(=O)c2cnc(Nc3ccc(N4CCN(C)CC4)cc3)nc2n1-c1cccc(C(C)(C)O)n1 [AZD1775] + C1CN(CCC1(C(=O)N[C@@H](CCO)C2=CC=C(C=C2)Cl)N)C3=NC=NC4=C3C=CN4 [Capivasertib] (first compound max 3 µM, partner max 3 µM)
combination Emax [1]: 0.584 | combination Emax [2]: 0.994 | combination Emax [3]: 0.721 | combination Emax (GCIY (Gastric Carcinoma)): 0.668 | combination Emax [4]: 0.861 | combination Emax [5]: 0.736 | combination Emax [6]: 0.736 | combination Emax [7]: 0.496 | combination Emax (SK-MEL-24 (Melanoma)): 0.503 | combination Emax [8]: 0.821 | combination Emax [9]: 0.714 | combination Emax [10]: 0.47 | combination Emax [11]: 0.87 | combination Emax [12]: 0.865 | combination Emax [13]: 0.322 | combination Emax [14]: 0.682 | combination Emax [15]: 0.543 | combination Emax (SK-N-DZ (Neuroblastoma)): 0.921 | combination Emax [17]: 0.85
